{"source": "patent US20030007964A1", "about": "“Method for treating rheumatoid arthritis with composition containing histone” (SAMYANG GENEX CORPORATION, priority 1998, published 2003)", "key": {"[1]": {"system": "collagen induced arthritis", "experiment": "Treatment effect on collagen induced arthritis in mice, histone H2A and its active fragment (Example 7)", "format": "in vivo", "procedure": "(§1) Five-week old DBA/1J female mice were imported from Charles River Japan and allowed to adapt in an animal room for two weeks before using them in the experiments at the age of 7 weeks (20-25 g).\n(§2) Isolated and quantified type II collagen of chicken (Sigma Chemical Co., St. Louis, Mo., U.S.A.) was solubilized in 0.1 N acetic acid at a concentration of 2 mg/ml. The solution was mixed with an equal amount of a complete Freund's adjuvant at 4° C. to form a suspension. One hundred microliters of this mixture was injected […] around the origin of the tail vein and further inoculated at 3 and 6 weeks after the first injection (D. E. Trentham et. al., Autoimmunity to Type II collagen: An Experimental Model of Arthritis, J. Exp. Med. 146; 857-868 (1977)). Arthritis was induced from the 4th week after the first injection.\n(§3) Clinical incidence of arthritis % (C.I.A) and arthritis index were examined. C.I.A. was expressed as the percentage of mice that have arthritic symptoms among the total mice. The degree of inflammation expressed as the arthritis index was categorized from 0 to 3 by 2 researchers every week as below. Pictures of the feet of some mice were taken 6 weeks after the collagen administration.\n(§4) 1: One or two toes were swollen with suffusion or had minimal swelling\n(§5) 2: Definite suffusion or local swelling in many toes\n(§6) 3: Observation of severe edema and swelling up to the knee and restricted use of the feet.\n(§7) The arthritis index was calculated for 4 feet (2 hind feet and 2 fore feet) giving the maximum value of 12. An index of 6-8 was considered severe since collagen induced arthritis invades in general mainly the hind feet (Korea J. Immunol. 18, 437, 1996; J. Immunol. 151, 6546,1993).\nAs a test group to examine the treatment effect, 5 mice for histone H2A and 7mice for histone H2A active fragment were used. 1 mg/kg body weight of histone H2A or histone H2A active fragment was administered into the mice via intraperitoneal injection 2 times every week from the 6th week (after arthritis induction) up to the 10th week. Histone H2A or histone H2A active fragment was diluted at a concentration of 5 mg/ml in PBS. As a comparison group, 1 mg/kg body weight of dexamethasone, a currently available rheumatoid arthritis drug, was administered into 7 mice via an intraperitoneal injection 2 times every week from the 6th week (after arthritis induction) up to the 10th week. As a control group, […] of PBS was administered into 7 mice every week from the third week up to 10th week after the first collagen injection."}, "[2]": {"system": "collagen induced arthritis", "experiment": "Preventive effect against collagen induced arthritis in mice (Example 3)", "format": "in vivo, DBA/1J female mice", "settings": "preventive regimen", "procedure": "as §1, §2, §3, §4, §5, §6, §7\nAs a test group to examine the preventive effect, 1 mg/kg body weight of histone H1 was administered into 10 mice via intraperitoneal injection 2 times every week from the third week (before arthritis induction) up to 10th week after the first injection. Histone H1 was diluted at a concentration of 5 mg/ml in PBS. As a comparison group, 1 mg/kg body weight of dexamethasone, a currently available rheumatoid arthritis drug, was administered into 10 mice via intraperitoneal injection 2 times every week from the third week (before arthritis induction) up to 10th week after the first injection. As a control group, 300 μl of PBS was administered into 20 mice 2 times every week from the third week up to 10th week after the first collagen injection."}, "[3]": {"system": "collagen induced arthritis", "experiment": "Treatment effect on collagen induced arthritis in mice, histone H1 (Example 4)", "format": "in vivo, DBA/1J female mice", "parameters": "key to arthritis index: sum of 0–3 per-foot scores over 4 feet, max 12", "procedure": "as §1, §2, §3, §4, §5, §6, §7\nAs a test group to examine the treatment effect, 1 mg/kg body weight of histone H1 was administered into 10 mice via intraperitoneal injection 2 times every week from the 6th week (after arthritis induction) up to the 10th week. Histone H1 was diluted at a concentration of 5 mg/ml in PBS. As a comparison group, 1 mg/kg body weight of dexamethasone, a currently available rheumatoid arthritis drug, was administered into 10 mice via an intraperitoneal injection 2 times every week from the 6th week (after arthritis induction) up to the 10th week. Identical control group was used as in EXAMPLE 1."}, "[4]": {"system": "collagen induced arthritis", "experiment": "Pathological observation of leg joints by H-E staining", "format": "in vivo, mice", "settings": "treatment regimen; 10 weeks after antigen inoculation", "description": "Mice were sacrificed by blood evacuation from the heart. The legs were cut immediately after the sacrifice and fixed in formalin. After the decalcification, legs were stained by hematoxylin-Eosin."}, "[5]": {"system": "anti-collagen antibody (Type II collagen)", "experiment": "Serum anti-collagen antibody level by ELISA", "format": "in vivo, mice", "settings": "serum at 10th week", "procedure": "At the 10th week the serum was isolated from the blood obtained through a heart puncture. The serum was kept at −80° C. and thawed immediately before the experiment to measure the anti-collagen antibody level by performing an ELISA (D. E. Tretham & R. A. Dynesius-Trentham, J. Immunol. 130; 2689-2692 (1983)). Type II collagen (25 μg/ml) in 0.1 M PBS was placed in each well of a 96-well polystyrene microplate (Nunc, Denmark) and was incubated at 4° C. for 8 hours. After the incubation, the wells were washed several times with a PBS-0.05% Tween 20 solution. To prevent non-specific immune reactions, PBS-0.5% ovalbumin was added in each well and incubated for an hour at room temperature and subsequently washed again with the PBS-0.05% Tween 20 solution. The serum, diluted 500 times with a buffer solution was added in each well and reacted for 2 hours at room temperature and further washed with the PBS-0.05% Tween 20 solution. After reacting each well with alkaline phosphatase conjugated goat anti-mouse IgA and IgM for 2 hours and adding 1 mg/ml of p-nitrophenyl phosphate, the absorbance at 450 nm was measured. The anti-collagen antibody level was measured twice for each sample and averaged.\nThe anti-collagen antibody level was measured to estimate the immune reaction as in EXAMPLE 3. […]"}, "[6]": {"settings": "test group at 5th week, before administration (baseline)"}, "[7]": {"settings": "treatment regimen from 6th week, 7th week"}, "[8]": {"settings": "treatment regimen from 6th week, 8th week"}, "[9]": {"settings": "treatment regimen from 6th week, 10th week"}}, "data": [{"compound": "Histone H2A", "values": [{"measurement": "arthritis index", "setting": "[1]; 1 mg/kg i.p. 2 times every week from 6th week, 7th week", "value": "4.80±0.45"}, {"measurement": "arthritis index", "setting": "[1]; 1 mg/kg i.p. from 6th week, after the 9th week", "value": 2.80}, {"measurement": "arthritis index", "setting": "[1]; [6]", "value": "3.60±0.55"}]}, {"compound": "C[C@@H]1C[C@H]2[C@@H]3CCC4=CC(=O)C=C[C@]4(C)[C@@]3(F)[C@@H](O)C[C@]2(C)[C@@]1(O)C(=O)CO", "note": "[dexamethasone, reference compound]", "values": [{"measurement": "arthritis index", "setting": "[2]; 5 weeks", "value": 2.00}, {"measurement": "arthritis index", "setting": "[2]; 6 weeks", "value": 1.50}, {"measurement": "C.I.A. (clinical incidence of arthritis)", "setting": "[3]; [7]", "value": 22.2, "unit": "%"}, {"measurement": "arthritis index", "setting": "[3]; [7]", "value": 2.67}, {"measurement": "C.I.A. (clinical incidence of arthritis)", "setting": "[3]; [8]", "value": 33.3, "unit": "%"}, {"measurement": "arthritis index", "setting": "[3]; [8]", "value": 1.67}, {"measurement": "C.I.A. (clinical incidence of arthritis)", "setting": "[3]; treatment regimen from 6th week, 9th week", "value": 22.2, "unit": "%"}, {"measurement": "arthritis index", "setting": "[3]; [9]", "value": 3.00}, {"measurement": "arthritis index", "setting": "[1]; 1 mg/kg i.p. from 6th week, 8th week", "value": 4.57}, {"measurement": "arthritis index", "setting": "[1]; 1 mg/kg i.p. from 6th week, 9th week", "value": 1.86}, {"measurement": "arthritis index", "setting": "[1]; 1 mg/kg i.p. from 6th week, 10th week", "value": 1.86}]}, {"compound": "Histone H1", "values": [{"measurement": "week at which arthritis was first observed after the inoculation", "setting": "[2]; 1 mg/kg i.p.", "value": 7, "unit": "week"}, {"measurement": "arthritis induction", "setting": "[2]; 1 mg/kg i.p. 2 times every week from third week, up to the 6th week", "value": "complete prevention of arthritis induction"}, {"measurement": "C.I.A. (clinical incidence of arthritis)", "setting": "[2]; 1 mg/kg i.p., 7th week", "value": 60, "unit": "%"}, {"measurement": "C.I.A. (clinical incidence of arthritis)", "setting": "[2]; 1 mg/kg i.p., 8th week", "value": 60, "unit": "%"}, {"measurement": "C.I.A. (clinical incidence of arthritis)", "setting": "[2]; 1 mg/kg i.p., 10th week", "value": 80, "unit": "%"}, {"measurement": "arthritis index relative to the control group", "setting": "[2]; 7th week", "value": 60, "unit": "%"}, {"measurement": "arthritis index", "setting": "[2]; mice that had arthritis, 10th week", "value": "2.25±1.26"}, {"measurement": "edema of fore feet (pictures)", "setting": "[3]; 6th week after administration of the collagen", "value": "improvement of edema was observed"}, {"measurement": "arthritis index", "setting": "[3]; [6]", "value": "3.33±0.58"}, {"measurement": "arthritis index", "setting": "[3]; treatment regimen from 6th week, 6th week", "value": "2.67±0.58"}, {"measurement": "C.I.A. (clinical incidence of arthritis)", "setting": "[3]; [7]", "value": 12.5, "unit": "%"}, {"measurement": "arthritis index", "setting": "[3]; [7]", "value": 1.00}, {"measurement": "C.I.A. (clinical incidence of arthritis)", "setting": "[3]; [8]", "value": 14.3, "unit": "%"}, {"measurement": "arthritis index", "setting": "[3]; [8]", "value": 2}, {"measurement": "C.I.A. (clinical incidence of arthritis)", "setting": "[3]; [9]", "value": 14.3, "unit": "%"}, {"measurement": "arthritis index", "setting": "[3]; [9]", "value": 1.00}, {"measurement": "fraction of the induced arthritis completely cured", "setting": "[3]; treatment regimen from 6th week, after the 7th week", "value": "⅔"}, {"measurement": "C.I.A. (clinical incidence of arthritis)", "setting": "[3]; treatment regimen, 1 mg/kg i.p. 2 times every week from 6th week, 6th week", "value": 37.5, "unit": "%"}, {"measurement": "formation of pannus, erosion of cartilage or manifestation of inflammatory cells (H-E staining)", "setting": "[4]", "value": "not observed"}, {"measurement": "anti-collagen antibody level (absorbance at 450 nm)", "setting": "[5]; preventive regimen, diluted 500 times", "value": "0.588±.214"}, {"measurement": "anti-collagen antibody level (absorbance at 450 nm)", "setting": "[5]; treatment regimen (from 6th week)", "value": "0.540±170"}]}]}
